Where “and” joins values, the source holds several entries; their conditions need not be identical. Equal values may be shown once.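 Where inhibition never reached the appropriate level, the endpoint shown equals the highest concentration tested. Otherwise, values were interpolated linearly from a five-concentration, 48-hour dose response in 96-well plates. At the GI50, growth is halved. TGI: concentration producing complete growth inhibition.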
How the values were obtained:
Experiment in all cases: NCI tumour cell line growth inhibition, 48 h
[1] = test system: 786-0 renal
[2] = test system: A498 renal
[3] = test system: A549 NSCLC
[4] = test system: ACHN renal
[5] = test system: BT-549 breast
[6] = test system: CAKI-1 renal
[7] = test system: CCRF-CEM leukemia
[8] = test system: COLO 205 colon
[9] = test system: DU-145 prostate
[10] = test system: EKVX NSCLC
[11] = test system: HCC-2998 colon
[12] = test system: HCT-116 colon
[13] = test system: HCT-15 colon
[14] = test system: HOP-62 NSCLC
[15] = test system: HOP-92 NSCLC
[16] = test system: HS 578T breast
[17] = test system: IGROV1 ovarian
[18] = test system: K-562 leukemia
[19] = test system: KM12 colon
[20] = test system: LOX IMVI melanoma
[21] = test system: M14 melanoma
[22] = test system: MALME-3M melanoma
[23] = test system: MCF7 breast
[24] = test system: MDA-MB-231 breast
[25] = test system: MDA-MB-435
[26] = test system: MOLT-4 leukemia
[27] = test system: NCI-H226 lung
[28] = test system: NCI-H23 lung
[29] = test system: NCI-H460 lung
[30] = test system: NCI-H522 lung
[31] = test system: NCI/ADR-RES ovarian
[32] = test system: OVCAR-3 ovarian
[33] = test system: OVCAR-4 ovarian
[34] = test system: OVCAR-5 ovarian
[35] = test system: OVCAR-8 ovarian
[36] = test system: PC-3 prostate
[37] = test system: RPMI-8226 leukemia
[38] = test system: RXF 393 renal
[39] = test system: SF-268 CNS
[40] = test system: SF-295 CNS
[41] = test system: SF-539 CNS
[42] = test system: SK-MEL-2 melanoma
[43] = test system: SK-MEL-5 melanoma
[44] = test system: SK-OV-3 ovarian
[45] = test system: SN12C renal
[46] = test system: SNB-19 CNS
[47] = test system: SR leukemia
[48] = test system: SW-620 colon
[49] = test system: TK-10 renal
[50] = test system: U251 CNS
[51] = test system: UACC-257 melanoma
[52] = test system: UACC-62 melanoma
[53] = test system: UO-31 renal
[54] = test system: HT29 colon
[55] = test system: SNB-75 CNS
[56] = test system: T-47D breast
[57] = test system: HL-60(TB) leukemia

CCCCCCCCCCCC(=O)N1CCN(C(C)=O)CC1
GI50 [1]: 16.9 µM | TGI [1]: 31.1 µM | GI50 [2]: 62.7 µM | TGI [2]: > 100 µM | GI50 [3]: 28 µM | TGI [3]: > 100 µM | GI50 [4]: 62.1 µM | TGI [4]: > 100 µM | GI50 [5]: 24.6 µM | TGI [5]: 58.1 µM | GI50 [6]: 19.9 µM | TGI [6]: 38.9 µM | GI50 [7]: 18.7 µM | TGI [7]: 40.6 µM | GI50 [8]: 18.1 µM | TGI [8]: 33.6 µM | GI50 [9]: 35 µM | TGI [9]: > 100 µM | GI50 [10]: 33.5 µM | TGI [10]: > 100 µM | GI50 [11]: 14.8 µM | TGI [11]: 28.1 µM | GI50 [12]: 22.5 µM | TGI [12]: 63.4 µM | GI50 [13]: 40.2 µM | TGI [13]: > 100 µM | GI50 [14]: 18.1 µM | TGI [14]: 36.4 µM | GI50 [15]: 11.5 µM | TGI [15]: 27.4 µM | GI50 [16]: 21.5 µM | TGI [16]: 48.4 µM | GI50 [17]: 18.8 µM | TGI [17]: 42.5 µM | GI50 [18]: 22.9 µM | TGI [18]: 59.7 µM | GI50 [19]: 25 µM | TGI [19]: 56.5 µM | GI50 [20]: 34.4 µM | TGI [20]: > 100 µM | GI50 [21]: 17.6 µM | TGI [21]: 33 µM | GI50 [22]: 26.9 µM | TGI [22]: 52.9 µM | GI50 [23]: 17.6 µM | TGI [23]: 32.8 µM | GI50 [24]: 21 µM | TGI [24]: 38.2 µM | GI50 [25]: 20.4 µM | TGI [25]: 40.9 µM | GI50 [26]: 20.8 µM | TGI [26]: 47.8 µM | GI50 [27]: 27.9 µM | TGI [27]: 77.3 µM | GI50 [28]: 19.5 µM | TGI [28]: 40.8 µM | GI50 [29]: 19.8 µM | TGI [29]: 38.1 µM | GI50 [30]: 17.4 µM | TGI [30]: 38.4 µM | GI50 [31]: 25.9 µM | TGI [31]: 72.6 µM | GI50 [32]: 27.6 µM | TGI [32]: 95 µM | GI50 [33]: 32.8 µM | TGI [33]: > 100 µM | GI50 [34]: 21.2 µM | TGI [34]: 48.5 µM | GI50 [35]: 29.3 µM | TGI [35]: > 100 µM | GI50 [36]: 17.8 µM | TGI [36]: 34.5 µM | GI50 [37]: 16.8 µM | TGI [37]: 35.7 µM | GI50 [38]: 15.4 µM | TGI [38]: 33.4 µM | GI50 [39]: 39.8 µM | TGI [39]: > 100 µM | GI50 [40]: 26.6 µM | TGI [40]: 63 µM | GI50 [41]: 18 µM | TGI [41]: 32.4 µM | GI50 [42]: 19.2 µM | TGI [42]: 35.7 µM | GI50 [43]: 23.7 µM | TGI [43]: 38.9 µM | GI50 [44]: 20.7 µM | TGI [44]: 39.7 µM | GI50 [45]: 18.8 µM | TGI [45]: 37.3 µM | GI50 [46]: 19.3 µM | TGI [46]: 40 µM | GI50 [47]: 22 µM | TGI [47]: 53.5 µM | GI50 [48]: 25.2 µM | TGI [48]: 46.6 µM | GI50 [49]: 31 µM | TGI [49]: 72.1 µM | GI50 [50]: 50.5 µM | TGI [50]: > 100 µM | GI50 [51]: 19.4 µM | TGI [51]: 36.9 µM | GI50 [52]: 19.7 µM | TGI [52]: 34.9 µM | GI50 [53]: 18.7 µM | TGI [53]: 42.6 µM

CC(C)(C)[Si](C)(C)OCC1OC(n2cc(I)c(=O)[nH]c2=O)C(O[Si](C)(C)C(C)(C)C)C1O[Si](C)(C)C(C)(C)C (centres undefined)
TGI [3]: 26.1 µM | TGI [4]: 28.5 µM | TGI [5]: 50.7 µM | TGI [8]: 53.7 µM | TGI [10]: 45.6 µM | TGI [13]: > 100 µM | TGI [14]: 39.8 µM | TGI [15]: 56.2 µM | TGI [16]: 57.2 µM | TGI [54]: 37 µM | TGI [17]: 38.1 µM | TGI [20]: 35.2 µM | TGI [21]: 45.4 µM | TGI [22]: > 100 µM | TGI [23]: 29.4 µM | TGI [24]: 37.4 µM | TGI [26]: > 100 µM | TGI [27]: 48 µM | TGI [29]: 36.8 µM | TGI [30]: 25.2 µM | TGI [31]: > 100 µM | TGI [32]: 28 µM | TGI [33]: > 100 µM | TGI [34]: 45.7 µM | TGI [35]: 29.1 µM | TGI [36]: 43.1 µM | TGI [39]: 43 µM | TGI [40]: 36.8 µM | TGI [43]: 31.4 µM | TGI [44]: 75.4 µM | TGI [45]: > 100 µM | TGI [46]: 43.2 µM | TGI [55]: 33 µM | TGI [47]: > 100 µM | TGI [48]: 41.4 µM | TGI [56]: 47.6 µM | TGI [51]: 67.6 µM | TGI [52]: 35.4 µM | TGI [53]: 50.2 µM

COc1ccc2c(c1)[nH]c(=O)c1c3ccccc3cn21
GI50 [1]: 0.0413 µM | TGI [1]: 1.84 µM and 2.16 µM | GI50 [2]: 0.0223 µM and < 0.0375 µM | GI50 [3]: 0.067 µM | TGI [3]: 1.65 µM and 1.69 µM | GI50 [4]: 0.125 µM | TGI [4]: 1.83 µM and 6.41 µM | GI50 [5]: 0.0549 µM | TGI [5]: 2.03 µM and 3.83 µM | GI50 [6]: 0.0355 µM | TGI [6]: 1.97 µM and 5.38 µM | GI50 [7]: 0.03 µM | GI50 [8]: 0.0412 µM | TGI [8]: 1.16 µM | TGI [9]: 11.9 µM | GI50 [10]: 0.0907 µM and < 0.0478 µM | TGI [10]: 19.1 µM | GI50 [11]: 0.0183 µM | TGI [11]: 0.0492 µM | GI50 [12]: 0.0395 µM | TGI [12]: 1.32 µM and 1.12 µM | GI50 [13]: 0.0262 µM and < 0.0177 µM | GI50 [57]: 0.0114 µM | TGI [57]: 0.0607 µM | GI50 [14]: 0.0312 µM | TGI [14]: 1.23 µM | GI50 [15]: 1.01 µM and 2.18 µM | TGI [15]: 15.9 µM | GI50 [16]: 0.0508 µM | TGI [16]: 2.71 µM and 14.1 µM | GI50 [54]: 0.034 µM | GI50 [17]: 0.0734 µM and < 0.0114 µM | TGI [17]: 2.27 µM and 16 µM | GI50 [18]: 0.00892 µM | GI50 [19]: 0.0331 µM and < 0.0486 µM | GI50 [20]: 0.0712 µM | TGI [20]: 1.77 µM and 2.09 µM | TGI [21]: 12.9 µM | TGI [22]: 14.9 µM | GI50 [23]: 0.0282 µM and < 0.0378 µM | TGI [23]: 1.46 µM and 12.7 µM | GI50 [24]: 0.0565 µM and 0.148 µM | TGI [24]: 0.74 µM and 1.08 µM | GI50 [26]: 0.0778 µM | TGI [26]: 2.14 µM and 9.95 µM | TGI [28]: 3.39 µM and 14.6 µM | GI50 [29]: 0.0348 µM | TGI [29]: 1.12 µM | GI50 [30]: 0.0597 µM | TGI [30]: 2.28 µM and 1.48 µM | GI50 [31]: 0.0213 µM | TGI [31]: 0.0575 µM | GI50 [32]: 0.0223 µM | TGI [32]: 0.0652 µM | GI50 [34]: 0.101 µM | TGI [34]: 7.86 µM and 5.56 µM | GI50 [35]: 0.0581 µM | TGI [35]: 2.36 µM and 5.18 µM | GI50 [36]: 0.0368 µM | TGI [36]: 2.55 µM and 3.04 µM | GI50 [37]: 0.0366 µM | TGI [37]: 1.4 µM and 0.4 µM | GI50 [38]: 0.0204 µM | TGI [38]: 3.19 µM and 2.47 µM | GI50 [39]: 0.0738 µM | GI50 [40]: 0.0268 µM | TGI [40]: 1.05 µM | GI50 [41]: 0.0228 µM | TGI [41]: 0.0704 µM and 0.207 µM | TGI [42]: 2.49 µM and 18.7 µM | GI50 [43]: 0.0282 µM | TGI [43]: 1.17 µM and 0.728 µM | GI50 [45]: 0.0571 µM and 0.28 µM | TGI [45]: 2.08 µM and 8.97 µM | GI50 [46]: 0.0387 µM | TGI [46]: 4.05 µM and 26.4 µM | TGI [47]: 2.04 µM | GI50 [48]: 0.0264 µM | TGI [48]: 1.42 µM and 1.51 µM | GI50 [49]: 0.515 µM and 0.265 µM | TGI [49]: 2.43 µM and 2.21 µM | GI50 [50]: 0.0436 µM | TGI [50]: 1.52 µM and 4.44 µM | GI50 [51]: 5.13 µM and 12.7 µM | TGI [51]: 30.8 µM | GI50 [52]: 0.0738 µM | TGI [52]: 1.89 µM and 13.3 µM | GI50 [53]: 0.0795 µM | TGI [53]: 2.26 µM and 5.82 µM

From PubChem BioAssay (NCI)
